Test [1] deals with T1, Ubiquitin carboxyl-terminal hydrolase 5 (Homo sapiens), P45974 [C335A,H818A].
T1 sequence (whole entry): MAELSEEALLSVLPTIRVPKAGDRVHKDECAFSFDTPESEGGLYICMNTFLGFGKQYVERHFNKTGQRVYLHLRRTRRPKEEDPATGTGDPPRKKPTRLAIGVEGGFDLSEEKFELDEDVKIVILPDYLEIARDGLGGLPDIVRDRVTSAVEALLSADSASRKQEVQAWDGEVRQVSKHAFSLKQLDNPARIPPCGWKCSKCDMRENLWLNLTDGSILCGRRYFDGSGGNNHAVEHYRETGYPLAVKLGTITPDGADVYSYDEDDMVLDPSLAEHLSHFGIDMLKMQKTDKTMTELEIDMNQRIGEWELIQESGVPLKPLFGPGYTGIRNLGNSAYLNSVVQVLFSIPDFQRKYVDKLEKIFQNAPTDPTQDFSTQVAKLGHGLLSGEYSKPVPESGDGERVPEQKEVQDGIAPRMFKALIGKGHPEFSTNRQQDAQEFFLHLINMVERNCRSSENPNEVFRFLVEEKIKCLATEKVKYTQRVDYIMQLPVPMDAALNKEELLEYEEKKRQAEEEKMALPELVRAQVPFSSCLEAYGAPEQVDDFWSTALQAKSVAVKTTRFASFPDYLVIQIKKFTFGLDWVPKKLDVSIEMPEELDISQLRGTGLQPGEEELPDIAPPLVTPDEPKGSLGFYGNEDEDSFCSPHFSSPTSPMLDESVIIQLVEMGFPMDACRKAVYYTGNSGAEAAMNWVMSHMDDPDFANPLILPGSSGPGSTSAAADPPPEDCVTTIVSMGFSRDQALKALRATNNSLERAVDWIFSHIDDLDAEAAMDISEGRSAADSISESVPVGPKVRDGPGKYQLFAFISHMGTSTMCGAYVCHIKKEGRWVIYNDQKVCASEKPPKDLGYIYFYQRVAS
As to the kind of experiment: Competitive binding affinity to human USP5 C335A/H818A mutant by SDS-PAGE analysis in presence of biotin-DMT.

The target of test [2] is T2, Ubiquitin carboxyl-terminal hydrolase isozyme L1 (Homo sapiens, UniProt P09936).
T2 sequence (P09936 whole entry): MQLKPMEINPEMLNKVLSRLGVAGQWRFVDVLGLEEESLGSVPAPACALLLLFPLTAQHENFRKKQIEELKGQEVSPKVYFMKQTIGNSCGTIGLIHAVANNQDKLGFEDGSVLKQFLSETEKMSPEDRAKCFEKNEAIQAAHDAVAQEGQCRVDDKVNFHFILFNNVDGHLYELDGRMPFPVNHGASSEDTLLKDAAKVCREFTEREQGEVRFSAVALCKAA
As to the kind of experiment: Inhibition of human UCH-L1 using Ub-AMC as substrate after 60 mins by fluorometric analysis.

The target in test [3] is T3, Ubiquitin carboxyl-terminal hydrolase 8 (Homo sapiens) (UniProt P40818).
T3 sequence (whole entry): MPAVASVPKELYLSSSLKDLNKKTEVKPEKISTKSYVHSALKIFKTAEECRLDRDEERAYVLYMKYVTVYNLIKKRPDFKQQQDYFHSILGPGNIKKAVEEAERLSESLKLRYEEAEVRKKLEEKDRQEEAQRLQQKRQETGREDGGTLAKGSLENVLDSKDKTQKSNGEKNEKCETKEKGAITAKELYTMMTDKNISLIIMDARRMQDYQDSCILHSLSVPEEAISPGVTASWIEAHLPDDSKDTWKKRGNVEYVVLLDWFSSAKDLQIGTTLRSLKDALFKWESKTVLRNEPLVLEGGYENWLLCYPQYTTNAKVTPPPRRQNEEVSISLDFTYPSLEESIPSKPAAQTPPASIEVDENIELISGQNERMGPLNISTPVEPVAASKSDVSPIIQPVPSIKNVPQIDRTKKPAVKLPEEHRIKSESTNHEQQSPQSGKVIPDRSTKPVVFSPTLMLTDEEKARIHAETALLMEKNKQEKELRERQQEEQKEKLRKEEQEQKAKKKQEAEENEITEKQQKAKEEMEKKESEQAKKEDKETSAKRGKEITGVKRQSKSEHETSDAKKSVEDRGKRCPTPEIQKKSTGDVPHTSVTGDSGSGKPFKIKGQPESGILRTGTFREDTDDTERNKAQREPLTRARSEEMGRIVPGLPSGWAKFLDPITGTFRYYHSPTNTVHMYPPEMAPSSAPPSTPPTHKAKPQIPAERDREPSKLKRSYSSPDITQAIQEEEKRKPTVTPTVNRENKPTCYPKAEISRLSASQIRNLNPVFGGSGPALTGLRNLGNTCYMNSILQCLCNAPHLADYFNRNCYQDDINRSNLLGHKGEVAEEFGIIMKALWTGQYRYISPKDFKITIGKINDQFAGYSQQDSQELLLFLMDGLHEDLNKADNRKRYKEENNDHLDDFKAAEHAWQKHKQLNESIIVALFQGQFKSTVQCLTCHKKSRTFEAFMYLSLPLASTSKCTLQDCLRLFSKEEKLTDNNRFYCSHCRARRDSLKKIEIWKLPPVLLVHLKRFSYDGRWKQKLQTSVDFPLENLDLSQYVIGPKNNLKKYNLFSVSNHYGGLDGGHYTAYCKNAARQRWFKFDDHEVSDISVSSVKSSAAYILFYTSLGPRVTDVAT
As to the kind of experiment: Inhibition of human USP8 using Ub-AMC as substrate at 1 to 30 uM after 60 mins by fluorometric analysis.

Activity, IC50 and inhibition data for one compound are collected here from ChEMBL document CHEMBL2406999, “Vialinin A is a ubiquitin-specific peptidase inhibitor” (Bioorg Med Chem Lett, 2013).

For orientation: pIC50 means −log10 of the IC50, conventionally taken in molar units.

Molecules are shown by their SMILES. pIC50: −log10 of the molar value. Active and inactive are the calls of the source. The rule behind the calls is not given here.

For the compound `O=C(Cc1ccccc1)Oc1c(OC(=O)Cc2ccccc2)c(-c2ccc(O)cc2)c(O)c(O)c1-c1ccc(O)cc1` [VIALININ A], in test [1], the result was inactive. In addition, the pIC50 in test [2] is 4.65. Besides, the inhibition result in test [3] is “inactive”.
